As a reminder, the IC50 is the concentration that gives 50% inhibition.

The results in this text go back to patent US4975455A, “New heteroarotinoid compounds” (Adir et Cie, priority 1988, dated 1990).

Where two headings read alike, the source gives them in different places.

The subject of data set [1] is L1210 line (mouse leukemic line). The data set can be described thus: Inhibition of growth of L1210 line (tritiated thymidine incorporation, 48 hours). It counts as cell-based. The settings on record: L1210 cells, read-out: IC50 (50% growth inhibition). As to the method: The growth of this mouse leukemic line is assessed by the capacity of the cells to incorporate tritiated thymidine. The degree of incorporation is measured 48 hours after the introduction of the test compounds into the culture medium.
For orientation: Dividing cells build labelled thymidine or BrdU into new DNA.

For data set [2] the following is noted: in vivo.
Excerpt: (§1) This can be reproduced experimentally in animals.
(§2) The selected treatment protocol is a daily injection for five days, repeated a second time after an interval of two days.
A short description of data set [3]: Detection of an excess-vitamin A type toxicity in vivo.
Excerpt: as §1, §2
The subject of another data set is humeri of rat fetuses. The data set can be described thus: Toxicity on the humeri of rat fetuses explanted in vitro (proteoglycan release). Format: cell-based. The conditions noted are these: 7 days of culture in vitro, in words. On the procedure: EXAMPLE 37: STUDY OF THE TOXICITY ON THE HUMERI OF RAT FETUSES OF GESTATIONAL AGE 21 DAYS
The toxicity of retinoids can be evaluated on humeri of rat fetuses of gestational age 21 days.
The toxicity of retinoids can be evaluated on humeri of rat fetuses explanted in vitro as described by KISTLER.
Retinoid activity results in a release of proteoglycans from the bony substance. This release is assessed after 7 days of culture in vitro by assaying the concentration of proteoglycans in the medium, by the method of WITHEMAN (1973).

[4] abbreviates: daily injection for five days, repeated after two days interval.

With `CCS(=O)(=O)c1ccc(/C=C(\C)C2=Cc3ccccc3OC2)cc1` [Example 16, ethyl 4-[2-(2H-chromen-3-yl)propenyl]phenyl sulfone], the IC50 in data set [1] was determined as 3.8 µM.
On the same count and under the same terms, under `CC(=Cc1ccccc1)C1=Cc2cc(Cl)cc(C)c2OC1` [Example 3] stands 20 µM.
Consider `CCS(=O)(=O)c1ccc(C=C(C)C2=Cc3cc(C)cc(C)c3OC2)cc1` [Example 18], for which, in data set [1], the 50% inhibitory concentration (IC50) was 6 µM.
Regarding `CCNC(=O)c1ccc(/C=C(\C)C2=Cc3ccccc3OC2)cc1` [Example 13, N-ethyl-4-[2-(2H-chromen-3-yl)propenyl]benzamide], the IC50 in data set [1] worked out at 3.8 µM.
As for `CC1=C(/C=C/C(C)=C/C=C/C(C)=C/C(=O)O)C(C)(C)CCC1` [retinoic acid], in data set [2], the alopecia entry was “appearance of alopecia” and the weight result was “rapid weight loss”.
`CCS(=O)(=O)c1ccc(/C=C(\C)C2=Cc3cc(OC)ccc3OC2)cc1` [Example 24, ethyl 4-[2-(6-methoxy-2H-chromen-3-yl)propenyl]phenyl sulfone]: the IC50 in data set [1] came to 8 µM.
Turning to `CCOC(=O)/C=C(C)/C=C/C=C(C)/C=C/c1c(C)cc(OC)c(C)c1C` [Etretinate, etretinate], the IC50 in data set [1] was 80 µM. In addition, in data set [3] (setting [4]), the alopecia result is reported as “appearance of alopecia”, the “fracture / bone weakening (radiography)” value is given as “bone weakening” and the weight result is reported as “rapid weight loss”. Further, the “excess-vitamin A type toxicity” value in data set [3] (overall, in words) was “rapid weight loss, alopecia and bone weakening”.
`COC(=O)c1ccc(/C=C(\C)C2=Cc3cc(Cl)cc(Cl)c3OC2)cc1` [Example 8]: in data set [1], the 50% inhibitory concentration (IC50) is 25 µM. In addition, the “toxicity on the humeri” value with humeri of rat fetuses is listed as “complete absence of toxicity”.
On to `CCS(=O)(=O)c1ccc(C=C(C)C2=Cc3cc(Cl)cc(C)c3OC2)cc1` [Example 17], for which the half-maximal inhibitory concentration (IC50) in data set [1] amounted to 7.5 µM.
Same read-out and setting: the value for `CC(=Cc1ccccc1)C1=Cc2ccccc2OC1` [Example 1, 3-(1-PHENYLPROPEN-2-YL)-2H-CHROMENE] was less than 1 µM; that for `CCOC(=O)c1ccc(/C=C(\C)C2=Cc3ccccc3OC2)cc1` [Example 10, ethyl 4-[2-(2H-chromen-3-yl)propenyl]benzoate] was 18 µM.
As to `COC(=O)c1ccc(/C=C(\C)C2=Cc3ccccc3OC2)cc1` [Example 6, methyl 4-[2-(2H-chromen-3-yl)propenyl]benzoate], in data set [1], the concentration for half-maximal inhibition (IC50) worked out at 25 µM.
